Experimental data reported in patent publication US5104869A, “Renin inhibitors” (American Cyanamid Company, priority 1990, dated 1992).

Target: T1, human kidney renin (Homo sapiens, UniProt P00797)
T1 construct: Human renin was prepared from human kidney; from tissue; host or cells: human kidney
T1 sequence (P00797 67-406): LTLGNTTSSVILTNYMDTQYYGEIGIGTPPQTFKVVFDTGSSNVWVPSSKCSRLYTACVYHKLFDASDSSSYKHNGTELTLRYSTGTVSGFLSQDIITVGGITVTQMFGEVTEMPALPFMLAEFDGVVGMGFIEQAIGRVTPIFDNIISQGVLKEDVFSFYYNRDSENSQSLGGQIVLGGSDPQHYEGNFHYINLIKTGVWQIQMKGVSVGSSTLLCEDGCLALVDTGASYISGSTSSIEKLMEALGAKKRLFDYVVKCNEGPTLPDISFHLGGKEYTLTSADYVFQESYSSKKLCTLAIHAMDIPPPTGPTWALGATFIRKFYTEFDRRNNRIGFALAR
Assay: Radioimmunoassay Screen for Renin Inhibitors (in vitro angiotensin I generation, quantitated by radioimmunoassay)
Type: biochemical
Settings: purified human plasma angiotensinogen, pH 6.0, one hour at 37° C., read-out: Renin Inhibiton IC50
Procedure: The in vitro method for the screening of anti-renin compounds involves, first, angiotensin I generation, and second, the quantitation of the angiotensin I produced by radioimmunoassay.
The incubation medium consisted of 20 μl of purified human plasma angiotensinogen (1); 10 μl of human kidney renin (2); 5 μl of phenylmethylsulfonyl fluoride; 10 μl of disodium EDTA (10 mM); 10 μl of antirenin compound (5×10^-3, 5×10^-4, 5×10^-5) in dimethylformamide, or ethanol and a suitable amount of maleate buffer (77 mM, pH 6.0) to make a final volume of 500 μl. The reaction mixture was incubated for one hour at 37° C. and the enzymatic reaction was stopped by placing the tube in ice-cold water. The angiotensin I generated during the incubation was measured by a radioimmunoassay plasma renin activity kit (Clinical Assays, Inc.).
The incubation medium consisted of either 100 μl aliquots of the above reaction mixture or a standard amount of angiotensin I; 1000 μl of phosphate buffer (100 mM, pH 7.6) and 100 μl of (^125 I)angiotensinin a gamma-coat, tube. After three hours of incubation at room temperature, the tubes were decanted, and the radioactivity of each tube was determined in a gamma counter. Duplicate determinations were performed for each incubation. The results were expressed in ng of angiotensin I generated per ml of generation medium per hour of incubation (ng/AI/ml/hr).
(1) The human plasma angiotensinogen derived from the blood of a person receiving oral contraceptive pills was purified by chromatography on a pepstatinaminohexyl-agarose column.
(2) Human renin was prepared from human kidney.

Point of comparison: `CC(C)(C)OC(=O)C[C@@H](Cc1cccc2ccccc12)C(=O)N[C@@H](Cc1cnc[nH]1)C(=O)N[C@@H](CC1CCCCC1)[C@@H](O)c1nccs1`, IC50 0.3 µM. Against it:
- CC(C)C[C@H](NC(=O)[C@@H](CC(=O)NCCN1CCOCC1)Cc1cccc2ccccc12)C(=O)N[C@@H](CC(C)C)[C@@H](O)c1nccs1 — within 1.5-fold, 0.4 µM
- CC(C)C[C@H](NC(=O)[C@@H](CC(=O)N1CCN(C)CC1)Cc1cccc2ccccc12)C(=O)N[C@@H](CC(C)C)[C@@H](O)c1nccs1 — within 1.5-fold, 0.44 µM
- CC(C)C[C@H](NC(=O)[C@H](Cc1ccccc1)OC(=O)N1CCOCC1)C(=O)N[C@@H](CC1CCCCC1)[C@@H](O)c1cccs1 — within 1.5-fold, 0.27 µM
- CC(C)C[C@H](NC(=O)[C@@H](CC(=O)NCCCn1ccnc1)Cc1cccc2ccccc12)C(=O)N[C@@H](CC(C)C)[C@@H](O)c1nccs1 — within 1.5-fold, 0.21 µM
- CC(C)C[C@H](NC(=O)[C@H](Cc1ccccc1)OC(=O)N1CCSCC1)C(=O)N[C@@H](CC1CCCCC1)[C@@H](O)c1ccco1 — 6.4-fold lower, 0.047 µM
- CC(C)C[C@H](NC(=O)[C@H](Cc1ccccc1)OC(=O)N1CCC(=O)CC1)C(=O)N[C@@H](CC1CCCCC1)[C@@H](O)c1ccco1 — 5.2-fold lower, 0.058 µM
- CC(C)C[C@H](NC(=O)[C@@H](CC(=O)NC(C)(C)C)Cc1ccccc1)C(=O)N[C@@H](CC(C)C)[C@@H](O)c1nccs1 — 220-fold higher, 67 µM
- CC(C)C[C@H](NC(=O)[C@@H](CC(=O)O)Cc1cccc2ccccc12)C(=O)N[C@@H](CC(C)C)[C@@H](O)c1nccs1 — 1.8-fold higher, 0.55 µM
- CC(C)C[C@H](NC(=O)[C@@H](CC(=O)NCCc1cccn1C)Cc1cccc2ccccc12)C(=O)N[C@@H](CC(C)C)[C@@H](O)c1nccs1 — 9.1-fold lower, 0.033 µM
- CC(C)C[C@H](NC(=O)[C@@H](CC(=O)NCc1cccnc1)Cc1cccc2ccccc12)C(=O)N[C@@H](CC(C)C)[C@@H](O)c1nccs1 — 1.8-fold lower, 0.17 µM
- COCCNC(=O)O[C@@H](Cc1ccccc1)C(=O)N[C@@H](CC(C)C)C(=O)N[C@@H](CC1CCCCC1)[C@@H](O)c1ccco1 — 5.7-fold higher, 1.7 µM
- CC(C)C[C@H](NC(=O)[C@H](Cc1ccccc1)OC(=O)N1CCSCC1)C(=O)N[C@@H](CC1CCCCC1)[C@@H](O)c1ccccn1 — 2.8-fold higher, 0.84 µM
- CC(C)C[C@H](NC(=O)[C@@H](CC(=O)NCCCN1CCOCC1)Cc1cccc2ccccc12)C(=O)N[C@@H](CC(C)C)[C@@H](O)c1nccs1 — within 1.5-fold, 0.44 µM
- CC(C)C[C@H](NC(=O)[C@@H](CC(=O)NCCN1CCCC1)Cc1cccc2ccccc12)C(=O)N[C@@H](CC(C)C)[C@@H](O)c1nccs1 — 2.5-fold higher, 0.74 µM
- CC(C)C[C@H](NC(=O)[C@H](Cc1ccccc1)OC(=O)N1CCNC(=O)C1)C(=O)N[C@@H](CC1CCCCC1)[C@@H](O)c1ccco1 — 1600-fold lower, 0.00019 µM
- COc1cc(C[C@H](CC(=O)N2CCOCC2)C(=O)N[C@@H](Cc2c[nH]cn2)C(=O)N[C@@H](CC(C)C)[C@@H](O)c2nccs2)cc(OC)c1OC — 9.3-fold higher, 2.8 µM
- CC(C)C[C@H](NC(=O)[C@@H](CC(=O)NCCOc1ccccn1)Cc1cccc2ccccc12)C(=O)N[C@@H](CC1CCCCC1)[C@@H](O)c1ccccn1 — 1.8-fold lower, 0.17 µM
- O=C(C[C@@H](Cc1cccc2ccccc12)C(=O)N[C@@H](Cc1cnc[nH]1)C(=O)N[C@@H](CC1CCCCC1)[C@@H](O)c1nccs1)NCCOc1ccccn1 — 1.9-fold higher, 0.58 µM
- CC(C)C[C@H](NC(=O)[C@@H](CC(=O)OC(C)(C)C)Cc1cccc2ccccc12)C(=O)N[C@@H](CC(C)C)[C@@H](O)c1nccs1 — 1.8-fold higher, 0.55 µM
- CC(C)C[C@H](NC(=O)[C@H](Cc1ccccc1)OC(=O)N1CCOCC1)C(=O)N[C@@H](CC1CCCCC1)[C@@H](O)c1ccccn1 — 2.6-fold higher, 0.77 µM
- CC(C)C[C@H](NC(=O)[C@H](Cc1ccccc1)OC(=O)N1CCSCC1)C(=O)N[C@@H](CC1CCCCC1)[C@@H](O)c1cccs1 — 1.7-fold higher, 0.5 µM
- CC(C)C[C@H](NC(=O)[C@@H](CC(=O)NCCCCn1ccnc1)Cc1cccc2ccccc12)C(=O)N[C@@H](CC(C)C)[C@@H](O)c1nccs1 — 3.2-fold lower, 0.093 µM
- CC(C)C[C@H](NC(=O)[C@@H](CC(=O)OC(C)(C)C)Cc1cccc2ccccc12)C(=O)N[C@@H](CC1CCCCC1)[C@@H](O)c1ccccn1 — 1.9-fold lower, 0.16 µM
- CC(=O)N1CCN(C(=O)O[C@@H](Cc2ccccc2)C(=O)N[C@@H](CC(C)C)C(=O)N[C@@H](CC2CCCCC2)[C@@H](O)c2ccco2)CC1 — 7.1-fold lower, 0.042 µM
- O=C(N[C@@H](Cc1cnc[nH]1)C(=O)N[C@@H](CC1CCCCC1)[C@@H](O)c1ccccn1)[C@@H](CC(=O)N1CCOCC1)Cc1cccc2ccccc12 — within 1.5-fold, 0.26 µM
- CC(C)C[C@H](NC(=O)[C@@H](CC(=O)N1CCOCC1)Cc1cccc2ccccc12)C(=O)N[C@@H](CC1CCCCC1)[C@@H](O)c1ccco1 — 34-fold lower, 0.0088 µM
- CC(C)C[C@H](NC(=O)[C@@H](CC(=O)NCCc1ccccc1)Cc1cccc2ccccc12)C(=O)N[C@@H](CC(C)C)[C@@H](O)c1nccs1 — 2.4-fold higher, 0.73 µM
- CC(C)C[C@H](NC(=O)[C@@H](CC(=O)NCCc1ccccn1)Cc1cccc2ccccc12)C(=O)N[C@@H](CC(C)C)[C@@H](O)c1nccs1 — 2.7-fold lower, 0.11 µM
- CC(C)C[C@H](NC(=O)[C@@H](CC(=O)O)Cc1cccc2ccccc12)C(=O)N[C@@H](CC1CCCCC1)[C@@H](O)c1ccccn1 — 13-fold higher, 3.8 µM
- CC(C)(C)NC(=O)C[C@@H](Cc1cccc2ccccc12)C(=O)N[C@@H](Cc1cnc[nH]1)C(=O)N[C@@H](CC1CCCCC1)[C@@H](O)c1nccs1 — 24-fold higher, 7.1 µM
- CC(C)C[C@H](NC(=O)[C@H](Cc1c[nH]cn1)NC(=O)[C@@H](CC(=O)NC(C)(C)C)Cc1ccccc1)[C@@H](O)c1nccs1 — 220-fold higher, 65 µM
- CC(C)C[C@H](NC(=O)[C@@H](CC(=O)OC(C)(C)C)Cc1ccccc1)C(=O)N[C@@H](CC1CCCCC1)[C@@H](O)c1nccs1 — 1.9-fold lower, 0.16 µM
- CC(C)C[C@H](NC(=O)[C@H](Cc1ccccc1)OC(=O)N1CCC2(CC1)OCCO2)C(=O)N[C@@H](CC1CCCCC1)[C@@H](O)c1ccco1 — within 1.5-fold, 0.21 µM
- CC(C)C[C@H](NC(=O)[C@@H](CC(=O)OC(C)(C)C)Cc1ccccc1)C(=O)N[C@@H](CC(C)C)[C@@H](O)c1nccs1 — 22-fold higher, 6.5 µM
- CC(C)C[C@H](NC(=O)[C@@H](CC(=O)NCCCN1CCCC1=O)Cc1cccc2ccccc12)C(=O)N[C@@H](CC(C)C)[C@@H](O)c1nccs1 — 4.1-fold lower, 0.074 µM
- CC(C)C[C@H](NC(=O)[C@@H](CC(=O)N1CCOCC1)Cc1cccc2ccccc12)C(=O)N[C@@H](CC1CCCCC1)[C@@H](O)c1ccccn1 — 3.9-fold lower, 0.077 µM
- CC(C)C[C@H](NC(=O)[C@@H](CC(=O)NCCN1CCCCC1)Cc1cccc2ccccc12)C(=O)N[C@@H](CC(C)C)[C@@H](O)c1nccs1 — 2.2-fold higher, 0.65 µM
- CC(C)C[C@H](NC(=O)[C@H](CC1CCCCC1)OC(=O)N1CCOCC1)C(=O)N[C@@H](CC1CCCCC1)[C@@H](O)c1ccco1 — 1.7-fold lower, 0.18 µM
- O=C(N[C@@H](Cc1cnc[nH]1)C(=O)N[C@@H](CC1CCCCC1)[C@@H](O)c1nccs1)[C@@H](CC(=O)N1CCOCC1)Cc1cccc2ccccc12 — 8.6-fold lower, 0.035 µM
- CC(C)C[C@H](NC(=O)[C@@H](CC(=O)N1CCOCC1)Cc1ccccc1)C(=O)N[C@@H](CC1CCCCC1)[C@@H](O)c1nccs1 — 270-fold higher, 80 µM
- Cn1cccc1CCNC(=O)C[C@@H](Cc1cccc2ccccc12)C(=O)N[C@@H](Cc1cnc[nH]1)C(=O)N[C@@H](CC1CCCCC1)[C@@H](O)c1nccs1 — within 1.5-fold, 0.34 µM
- CC(C)C[C@H](NC(=O)[C@@H](CC(=O)N1CCOCC1)Cc1cccc2ccccc12)C(=O)N[C@@H](CC(C)C)[C@@H](O)c1nccs1 — within 1.5-fold, 0.25 µM
- O=C(N[C@@H](Cc1cnc[nH]1)C(=O)N[C@@H](CC1CCCCC1)[C@@H](O)c1ccco1)[C@@H](CC(=O)N1CCOCC1)Cc1cccc2ccccc12 — 61-fold lower, 0.0049 µM
